This is an account of results in PMC8761912, “Cryptosporidium parvum Pyruvate Kinase Inhibitors With in vivo Anti-cryptosporidial Efficacy” (Frontiers in Microbiology, 2022).

“Also recorded” adds a separate entry of the source. Read-outs that look alike come from different tables or passages of the source.

What is called EC50 is the concentration giving half of the maximal effect.

The subject of assay [1] is C. parvum. The assay is described as follows: Histopathology of distal small intestine of C. parvum-infected IFN-γ KO mice. The assay is classed as in vivo, Cryptosporidium parvum. Conditions: sacrificed day 11 PI. As for the experimental part: Eight weeks old male interferon-gamma knockout (IFN-γ KO) mice (B6.129S7-Ifng^TM1Ts/J) were purchased from The Jackson Laboratory, United States, and allowed to quarantine and acclimatize for 1 week before the commencement of experiments. Before the start of the infection assays in mice, the tolerability of each inhibitor was determined by daily oral gavage with varying dosages (0–10 mg/kg mouse bodyweight) in groups of mice (n = 3 mice per group) for 8 days. During this period, mice were monitored daily for any changes in physical and mental activity, feeding, body weight, body temperature, fur condition, and body posture. […] Mice were divided into infected and uninfected groups (n = 3 mice per group) and each individual mouse was housed in a separate cage lined with sterile gauze bedding. Each mouse from the infected group was infected by oral gavage administration of 10^4 C. parvum AUCP-1 isolate oocysts suspended in 50 μl of PBS. Beginning day 3 PI, groups of mice were orally treated with CpPyK inhibitors (at the specified doses), sham (100 μl of 5% DMSO in PBS), or 1,000 mg/kg paromomycin (in sterile water) once daily for a total of 8 days. Fecal pellets were collected daily in individual sterile 15 ml tubes, and submerged in an equivalent volume of PBS containing a cocktail of penicillin (100 units/ml), streptomycin (100 μg/ml), chloramphenicol (34 μg/ml), and amphotericin (0.25 μg/ml), and stored at 4°C until use. Three independent replicate infection assays were performed. Mice were sacrificed at day 11 PI, and 5 cm of the distal small intestine just anterior to the cecum was resected and submerged in 10% neutral buffered formalin and submitted for histopathological processing in the Comparative Biosciences Histology Laboratory at the University of Illinois at Urbana-Champaign. Briefly, intestinal tissues preserved in 10% neutral buffered formalin were washed in 70% ethanol, embedded in paraffin, and sectioned transversely at a thickness of 5 μm. Sections were stained with hematoxylin and eosin. The slides were imaged using a Zeiss microscope fitted with a color camera.

The test system of assay [2] is C. parvum. In words: In vitro anti-Cryptosporidium activity in infected HCT-8 cells (immunofluorescence assay). The assay is classed as cell-based, Cryptosporidium parvum. Conditions: for effect on in vitro proliferation and viability of C. parvum: 25 μM, added immediately after infection, 48 h of culture, vs untreated parasites; for EC50: Cryptosporidium parvum; for Selectivity index (CC50/EC50): HCT-8 CC50 / anti-C. parvum EC50; for effect on proliferation of intracellular C. parvum in HCT-8 cells: varying concentrations, 0 h or 2 h PI, analysed 48 h PI, vs infected cultures without compound. As for the experimental part:
Once confluent, the cells were infected with 10^5 freshly excysted C. parvum sporozoites per well, immediately followed by the addition of anti-CpPyK compounds (reconstituted in DMSO) to one set of wells. Control infected cells were treated with DMSO volumes equivalent to those used for the compound-treated cultures. Paromomycin reconstituted in distilled sterile water, served as a positive control at a concentration of 200 μM. […] Briefly, the medium was removed from the culture wells, and the cells were washed two times with PBS before fixation with pre-chilled methanol-acetic acid (9:1) for 5 min at room temperature. Residual fixative was removed by rinsing the wells with PBS. Cells were rehydrated and permeabilized by washing twice with a buffer containing 0.1% Triton X-100, 0.35 M NaCl, and 0.13 M Tris-base, pH 7.6. Normal goat serum (5% in PBS) was used as a blocking agent, and the cell monolayer was stained with a fluorescein-labeled anti-C. parvum polyclonal antibody (Sporo-Glo™; Waterborne, Inc.) overnight at 4°C. The stained cells were washed twice with PBS followed by the addition of 200 μl water to each well. Plates were then imaged with an inverted fluorescence microscope using a 20× objective. The fluorescence generated by intracellular C. parvum parasites was quantified from nine microscopic fields per well of a 96-well plate using the batch process function in ImageJ version v1.50 (NIH, United States) after setting a threshold for the detection of parasites. Control wells with uninfected monolayers were included for background subtraction. Experiments were performed in triplicate and repeated at least three times.
One set of wells with confluent HCT-8 cells received CpPyK inhibitors immediately after C. parvum infection, while the same compounds were added to the other set of wells 2 h post-infection (PI). Control infected cells were treated with varying volumes of DMSO equivalent to the ones used for the compound-treated cultures. Cell monolayers were processed for immunofluorescence analysis after 48 h of incubation as described above. Samples were run in triplicate and three independent assays were performed. EC50 values were calculated using non-linear regression analysis of the mean dose-response curve data in GraphPad PRISM® v8.

[3] abbreviates: 2.5 mg/kg daily oral from day 3 PI.
Where [4] appears, read: HCT-8, read-out: Anti-C. parvum EC50, 0 h PI.
[5] abbreviates: HCT-8, read-out: Anti-C. parvum EC50, 2 h PI.
[6] abbreviates: 10 mg/kg daily oral from day 3 PI.

With `N#C/C(=C\c1cc(O)c(O)c(O)c1)C(N)=O` [NSC638080, (E)-2-cyano-3-(3,4,5-trihydroxyphenyl)prop-2-enamide], the “intestinal pathology (histology, distal small intestine)” value (shortened to “intestinal pathology”) in assay [1] (setting [3]) is reported as “reduced intestinal pathology”. In assay [2], the “effect on in vitro proliferation and viability of C. parvum” value (“effect … of C. parvum” for short) is “significant inhibitory effect”; the “Selectivity index (CC50/EC50)” value is 68.96; the “effect on proliferation of intracellular C. parvum in HCT-8 cells” value (shortened to “effect on proliferation”) is “significant (P < 0.05) concentration-dependent inhibitory effect”. Also, the EC50 in assay [2] (setting [4]) was found to be 10.9 µM. Further, the EC50 in assay [2] (setting [5]) stood at 14.7 µM.

`CCOc1ccc(/C=C2\CCc3ccccc3C2=O)cc1` [NSC252172, (2E)-2-[(4-ethoxyphenyl)methylidene]-3,4-dihydronaphthalen-1-one]: the “intestinal pathology” value in assay [1] (setting [6]) is on record as “notably reduced pathological changes”. Also, in assay [2], the “effect … of C. parvum” value is on record as “significant inhibitory effect”; the “Selectivity index (CC50/EC50)” value amounted to 15.10; the “effect on proliferation” value is given as “significant (P < 0.05) concentration-dependent inhibitory effect”. Further, the EC50 in assay [2] (setting [4]) came to 17.6 µM. In assay [2] (setting [5]), the EC50 stood at 18.7 µM.

For the molecule `Cc1cc2c(c(C#N)c1C)NC=NC2C` (stereo not drawn) [NSC303244, 4,6,7-trimethyl-1,4-dihydroquinazoline-8-carbonitrile], the “intestinal pathology” value in assay [1] (setting [3]) is “reduced intestinal pathology”. Besides, in assay [2], the “effect … of C. parvum” value is “significant inhibitory effect”; the “Selectivity index (CC50/EC50)” value turned out to be 64.15; the “effect on proliferation” value is reported as “significant (P < 0.05) concentration-dependent inhibitory effect”. Moreover, in assay [2] (setting [4]), the EC50 stood at 10.3 µM. For the same molecule, the EC50 in assay [2] (setting [5]) worked out at 15.8 µM.

For the molecule `c1ccc(-c2nnc(-c3ccccn3)[nH]2)nc1` [NSC234945, 2-(3-pyridin-2-yl-1H-1,2,4-triazol-5-yl)pyridine], the “intestinal pathology” value in assay [1] (setting [6]) is “best efficacy; also recorded: notably reduced pathological changes”. In addition, in assay [2], the “effect … of C. parvum” value is given as “significant inhibitory effect”; the “Selectivity index (CC50/EC50)” value is recorded as 5.02; the “effect on proliferation” value is “significant (P < 0.05) concentration-dependent inhibitory effect”. For the same molecule, the EC50 in assay [2] (setting [4]) came to 86 µM. For the same molecule, the EC50 in assay [2] (setting [5]) was found to be 89.6 µM.
